Laboratory results: patent publication US20110028554A1, “PHARMACEUTICAL COMPOSITIONS COMPRISING DIIODOTHYRONINE AND THEIR THERAPEUTIC USE” (UNIVERSITE JOSEPH FOURIER, priority 2007, published 2011)

How the values were obtained:
[1] = normal rats, high-fat diet, daily peritoneal injection; cited from earlier work
[2] = Food intake of Wistar rats; assay type: in vivo
Protocol: Adult male rat bred in the animal room facilities of Laboratory of Fundamental and Applied. Bioenergetics (Wistar strain) or purchased from Charles-River Laboratories, Domaine des oncins, L'ARBRESLE France [(genetically obese normoglycemic (Zucker or Fa/Fa) or diabetic (ZDF)] were caged individually in stainless steel hanging cages and maintained in a 22° C., 50±10% relative humidity and 12 h:12 h light:dark environment. All animals were fed ad libitum with a standard rat chow (Safe A04, Villemoisson, France) and tap water. Body mass and food intake were recorded twice/thrice a week and fresh food was provided, at the same time to ensure minimal disturbance to the animals' food, behavior.
Eight-week old rats (300 g±10 g) were anesthetized by simultaneous intraperitoneal injection of diazepam 4 mg/kg and ketamine 100 mg/kg. In order to maintain body temperature during the surgery (10 min), animals were placed on a warm blanket. After interscapular shaving, a small incision of 0.5 cm of the skin allows the subcutaneous implantation of a small pellet (containing rT3 or 3′,3-T2) with a 10-gauge precision trochar. The pellets, manufactured by Innovative Research of America (Sarasota, Fla., USA) are constituted of a biodegradable matrix that effectively and continuously release the active product in the animal.
3-5 diiodothyronine (3-5 T2) or 3-3′diiodothyronine (3-3′ T2) were used at different doses (5, 0.5, or 0.1 mg/pellet) were implanted in order to provide a continuous and constant drug delivery over 60 days (which represents 25 μg, 2.5 μg or 0.5 μg/day/100 g BW).

[3] = test system: muscle mitochondria; test: Muscle mitochondrial oxygen consumption (JO2) of treated Wistar rats; assay type: in vivo
Protocol: All measurements were performed using mitochondria (0.2 mg mitochondrial protein/ml) incubated with various substrates: • GM: glutamate/malate (5 mM/2.5 mM) • SR: succinate/rotenone (5 mM/5 μM), • GMS: glutamate/malate/succinate (5 mM/2.5 mM/5 mM), • Palm: palmitoyl carnitine (55 μM), • Octa: octanoyl carnitine (100 μM), • TMPD/AsC: TMPD/ascorbate (0.5 mM/0.5 mM), and • TMPD/AsC/DNP: TMPD/ascorbate/DNP (0.5 mM/0.5 mM/75 μM).
JO2 was recorded in the presence of the substrate and following the addition of 1 mM ADP (state 3).
The oligomycin was added to the mitochondrial suspension to determine the non-phosphorylating respiratory rate (state 4).
The major part of the liver and the red part of each quadriceps were rinsed, and chopped into isolation medium (250 mM sucrose, 20 mM Tris-HCl and 1 mM EGTA-Tris, pH 7.4). Nuclei and cell debris were removed, by centrifugation at 800 g for 10 min. Mitochondria were then isolated from the supernatant by spinning twice at 8,000 g for 10 minutes. The mitochondrial pellet was resuspended in 0.5 ml of isolation buffer and kept on ice. Mitochondrial protein was measured by the bicinchoninic acid method (Pierce, Rockford, Ill.). The final mitochondrial suspensions were maintained on ice and were used for measurements of oxygen consumption rate and reactive oxygen species (ROS) production.
The rate of mitochondrial oxygen consumption (JO2) was measured at 30° C. in an incubation chamber with a Clark-type O2 electrode filled with 2 ml of incubation medium (125 mM KCl, 10 mM Pi-Tris, 20 mM Tris-HCl, 0.1 mM EGTA, pH 7.2). All measurements were performed using mitochondria (1.0 or 0.2 mg mitochondrial protein/ml for liver and skeletal muscle) incubated either with various substrates: glutamate/malate (5 mM/2.5 mM) and succinate (5 mM), alone or in combination, palmitoyl carnitine (55 μM) and octanoyl carnitine (100 μM). For each substrate, JO2 was recorded in the presence of the substrate alone (State 2) and following the addition of 1 mM ADP (state 3). Oligomycin (1.25 μg/mg protein) was added to the mitochondrial suspension to determine the non-phosphorylating respiratory rate (state 4). The incubation medium was constantly stirred with a built-in electromagnetic stirrer and bar flea. The efficiency of the mitochondrial oxidative phosphorylation was assessed by the state 3/state 4 ratio which measures the degree of control imposed on oxidation by phosphorylation (respiratory control ratio, RCR).

[4] = Body composition (adipose tissues, skeletal muscles, brown adipose tissue) of Wistar rats; assay type: in vivo
Text: At the end of the experimental period, animals were sacrificed by decapitation, in order to avoid the well-known effects of general anesthetics on mitochondrial metabolism. Blood, samples were immediately collected and plasma was frozen for subsequent determination of serum metabolites and hormones. Liver, muscles and fat depots were quickly excised and weighed. Liver median lobe was rapidly freeze-clamped. Muscles (plantaris, soleus and gastrocnemius) were frozen in isopentane precooled in liquid nitrogen. Mesenteric fat consisted, of adipose tissue surrounding the gastro-intestinal tract from the gastro-oesophageal sphincter to the end of the rectum with special care taken in distinguishing and removing the pancreas. Retroperitoneal fat pad was taken as the distinct depot behind each kidney along the lumbar muscles. Epididymal fat consisted, of adipose tissue on top of the epididymis. For subcutaneous depot measurement, a rectangular piece of skin was taken on the right side of each animal from the median line of the abdomen between the spine and the right hip to the first rib. Interscapular brown adipose tissue was removed and dissected free from adjacent muscles and white adipose tissue. The heart ventricles, the right kidney and the spleen were also excised, weighed and frozen.

SMILES: N[C@@H](Cc1cc(I)c(Oc2ccc(O)cc2)c(I)c1)C(=O)O [3,5-T2, 3,5-diiodothyronine]
- Fat deposit vs untreated rats [1]: less fat deposit
- Weight gain vs untreated rats [1]: gained less weight
- Food intake vs placebo ([2]; high dosage 25 μg/100 g BW): a clear increase was observed
- Food intake vs placebo ([2]; low dosage 2.5 μg/100 g BW): almost not affect
- Muscle mitochondrial respiration, non-phosphorylating (state 4), vs placebo ([3]; high dosage 25 μg/100 g BW): failed to substantially affect
- Muscle mitochondrial respiration, phosphorylating (state 3), vs placebo ([3]; high dosage 25 μg/100 g BW): failed to substantially affect
- Muscle mitochondrial respiration, non-phosphorylating (state 4), vs placebo ([3]; low dosage 2.5 μg/100 g BW): failed to substantially affect
- Muscle mitochondrial respiration, phosphorylating (state 3), vs placebo ([3]; low dosage 2.5 μg/100 g BW): failed to substantially affect
- Brown adipose tissue weight vs placebo ([4]; high dosage 25 μg/100 g BW): significantly increased
- Fat masses, all localizations (retroperitoneal, epididymal, mesenteric, subcutaneous) vs placebo ([4]; high dosage 25 μg/100 g BW): significantly lower
- Muscle mass / lean body mass vs placebo ([4]; high dosage 25 μg/100 g BW): not affected at all
- Fat mass vs placebo ([4]; low dosage 2.5 μg/100 g BW): significantly decreased
- Lean body mass vs placebo ([4]; low dosage 2.5 μg/100 g BW): not affected
